{"source": "patent US20100137449A1", "about": "“SUBSTITUTED 1,3-CYCLOPENTADIONE MULTI-TARGET PROTEIN KINASE MODULATORS OF CANCER, ANGIOGENESIS AND THE INFLAMMATORY PATHWAYS ASSOCIATED THEREWITH” (METAPROTEOMICS, LLC, priority 2007, published 2010)", "test_in_all_cases": "KinaseProfiler Assay", "key": {"ZIPK(h)": {"target": "ZIPK(h) (Homo sapiens, UniProt O43293)", "sequence (O43293 whole entry)": "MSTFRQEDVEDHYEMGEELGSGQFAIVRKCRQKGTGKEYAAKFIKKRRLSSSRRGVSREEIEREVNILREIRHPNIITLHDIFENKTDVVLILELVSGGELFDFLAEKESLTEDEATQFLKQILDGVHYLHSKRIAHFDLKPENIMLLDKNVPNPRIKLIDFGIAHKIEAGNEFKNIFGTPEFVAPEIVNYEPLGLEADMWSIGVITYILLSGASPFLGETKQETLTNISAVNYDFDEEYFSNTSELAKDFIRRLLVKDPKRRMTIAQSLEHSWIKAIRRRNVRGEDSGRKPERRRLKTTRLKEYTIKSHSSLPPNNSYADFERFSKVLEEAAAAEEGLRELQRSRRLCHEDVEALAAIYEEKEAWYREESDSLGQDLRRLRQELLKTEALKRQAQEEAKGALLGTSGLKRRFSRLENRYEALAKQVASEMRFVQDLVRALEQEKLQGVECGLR"}, "Rsk3(h)": {"target": "Rsk3(h) (Homo sapiens, UniProt Q15349)"}, "ZAP-70(h)": {"target": "T1, ZAP-70(h) (Homo sapiens, UniProt P43403)", "T1 sequence (P43403 1-619)": "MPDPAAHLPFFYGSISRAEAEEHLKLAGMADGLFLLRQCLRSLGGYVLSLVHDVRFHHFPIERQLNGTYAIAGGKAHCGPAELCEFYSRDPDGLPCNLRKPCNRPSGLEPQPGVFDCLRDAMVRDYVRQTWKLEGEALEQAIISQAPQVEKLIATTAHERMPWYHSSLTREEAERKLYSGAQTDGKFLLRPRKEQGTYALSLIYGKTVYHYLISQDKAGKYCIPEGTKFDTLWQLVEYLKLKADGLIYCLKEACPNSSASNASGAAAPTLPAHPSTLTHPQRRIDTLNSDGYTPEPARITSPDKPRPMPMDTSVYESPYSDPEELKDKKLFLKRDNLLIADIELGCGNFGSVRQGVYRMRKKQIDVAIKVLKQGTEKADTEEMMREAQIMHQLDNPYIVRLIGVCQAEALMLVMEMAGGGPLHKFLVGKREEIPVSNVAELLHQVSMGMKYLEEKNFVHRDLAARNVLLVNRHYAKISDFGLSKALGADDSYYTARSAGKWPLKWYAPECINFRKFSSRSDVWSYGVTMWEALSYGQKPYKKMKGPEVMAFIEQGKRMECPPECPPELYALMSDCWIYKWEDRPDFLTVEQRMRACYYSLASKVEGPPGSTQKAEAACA"}, "Rsk1(r)": {"target": "Rsk1(r) (Rattus norvegicus, UniProt Q63531)", "sequence (Q63531 whole entry)": "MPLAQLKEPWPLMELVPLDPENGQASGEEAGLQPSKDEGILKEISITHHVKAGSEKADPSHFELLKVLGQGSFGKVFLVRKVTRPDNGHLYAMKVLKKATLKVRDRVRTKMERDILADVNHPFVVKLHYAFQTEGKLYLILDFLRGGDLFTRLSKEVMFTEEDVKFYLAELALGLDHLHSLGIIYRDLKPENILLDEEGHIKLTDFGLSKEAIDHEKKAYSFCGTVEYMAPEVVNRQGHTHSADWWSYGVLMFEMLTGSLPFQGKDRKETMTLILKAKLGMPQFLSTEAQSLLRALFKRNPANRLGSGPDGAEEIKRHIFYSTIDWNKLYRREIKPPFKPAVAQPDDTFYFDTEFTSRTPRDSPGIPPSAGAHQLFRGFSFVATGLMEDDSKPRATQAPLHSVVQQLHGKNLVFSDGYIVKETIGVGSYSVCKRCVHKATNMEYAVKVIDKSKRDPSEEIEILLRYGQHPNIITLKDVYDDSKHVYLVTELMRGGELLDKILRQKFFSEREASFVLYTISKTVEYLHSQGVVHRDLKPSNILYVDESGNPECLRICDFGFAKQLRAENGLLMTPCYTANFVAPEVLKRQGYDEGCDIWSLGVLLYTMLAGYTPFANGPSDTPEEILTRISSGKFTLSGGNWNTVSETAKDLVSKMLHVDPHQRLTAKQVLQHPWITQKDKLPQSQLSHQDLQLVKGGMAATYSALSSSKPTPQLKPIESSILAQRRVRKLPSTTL"}, "ALK4(h)": {"target": "T2, ALK4(h) (Homo sapiens, UniProt P36896)", "T2 sequence (P36896 24-505)": "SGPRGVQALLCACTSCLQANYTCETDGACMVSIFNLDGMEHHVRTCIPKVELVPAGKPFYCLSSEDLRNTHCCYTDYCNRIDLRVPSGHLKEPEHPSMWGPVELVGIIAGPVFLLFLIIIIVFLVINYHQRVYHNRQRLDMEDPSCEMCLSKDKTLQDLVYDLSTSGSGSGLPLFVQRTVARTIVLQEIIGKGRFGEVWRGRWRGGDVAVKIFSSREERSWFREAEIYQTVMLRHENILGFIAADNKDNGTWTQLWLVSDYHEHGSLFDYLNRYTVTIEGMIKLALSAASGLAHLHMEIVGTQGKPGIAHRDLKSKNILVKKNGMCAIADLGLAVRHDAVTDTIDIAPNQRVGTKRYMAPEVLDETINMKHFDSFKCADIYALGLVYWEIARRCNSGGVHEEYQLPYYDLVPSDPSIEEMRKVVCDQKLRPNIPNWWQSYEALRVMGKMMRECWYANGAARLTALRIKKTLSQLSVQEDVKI"}, "EGFR(T790M, L858R)(h)": {"target": "EGFR(T790M, L858R)(h) (Homo sapiens, UniProt P00533, L858R/T790M)", "sequence (P00533 25-1210 T790M/L858R)": "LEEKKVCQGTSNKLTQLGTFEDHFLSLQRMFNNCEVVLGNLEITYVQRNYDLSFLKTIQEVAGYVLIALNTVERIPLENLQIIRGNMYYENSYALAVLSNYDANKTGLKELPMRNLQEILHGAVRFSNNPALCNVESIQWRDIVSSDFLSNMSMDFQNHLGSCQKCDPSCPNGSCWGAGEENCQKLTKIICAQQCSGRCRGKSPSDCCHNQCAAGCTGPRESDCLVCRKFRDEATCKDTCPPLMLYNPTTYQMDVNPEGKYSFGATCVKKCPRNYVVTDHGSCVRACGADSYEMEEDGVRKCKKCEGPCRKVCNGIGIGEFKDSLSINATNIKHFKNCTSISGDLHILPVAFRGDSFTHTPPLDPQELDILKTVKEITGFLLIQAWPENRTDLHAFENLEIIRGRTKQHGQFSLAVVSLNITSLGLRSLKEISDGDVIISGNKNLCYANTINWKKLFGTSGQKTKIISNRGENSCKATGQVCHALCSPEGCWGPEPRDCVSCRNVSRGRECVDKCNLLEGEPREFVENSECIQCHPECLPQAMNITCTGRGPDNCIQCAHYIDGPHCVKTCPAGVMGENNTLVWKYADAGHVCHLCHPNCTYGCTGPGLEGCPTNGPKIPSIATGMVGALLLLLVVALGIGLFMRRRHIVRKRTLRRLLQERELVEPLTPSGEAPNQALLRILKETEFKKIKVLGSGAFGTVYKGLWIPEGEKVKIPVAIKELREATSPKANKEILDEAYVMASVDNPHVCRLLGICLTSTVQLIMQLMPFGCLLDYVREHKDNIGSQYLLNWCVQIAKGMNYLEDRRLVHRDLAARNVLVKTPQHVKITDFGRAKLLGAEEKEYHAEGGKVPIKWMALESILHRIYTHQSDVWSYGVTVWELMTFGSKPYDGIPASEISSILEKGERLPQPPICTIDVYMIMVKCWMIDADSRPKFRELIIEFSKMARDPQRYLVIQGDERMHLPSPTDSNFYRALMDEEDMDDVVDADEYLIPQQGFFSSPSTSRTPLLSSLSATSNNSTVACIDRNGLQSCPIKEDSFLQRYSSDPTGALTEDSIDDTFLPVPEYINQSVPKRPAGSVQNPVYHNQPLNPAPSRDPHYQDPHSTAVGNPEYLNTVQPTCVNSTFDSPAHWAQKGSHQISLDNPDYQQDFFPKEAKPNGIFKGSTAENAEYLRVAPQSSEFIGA"}, "IR(h)": {"target": "IR(h) (Homo sapiens, UniProt P06213)"}, "IRAK1(h)": {"target": "IRAK1(h) (Homo sapiens, UniProt P51617)", "sequence (P51617 whole entry)": "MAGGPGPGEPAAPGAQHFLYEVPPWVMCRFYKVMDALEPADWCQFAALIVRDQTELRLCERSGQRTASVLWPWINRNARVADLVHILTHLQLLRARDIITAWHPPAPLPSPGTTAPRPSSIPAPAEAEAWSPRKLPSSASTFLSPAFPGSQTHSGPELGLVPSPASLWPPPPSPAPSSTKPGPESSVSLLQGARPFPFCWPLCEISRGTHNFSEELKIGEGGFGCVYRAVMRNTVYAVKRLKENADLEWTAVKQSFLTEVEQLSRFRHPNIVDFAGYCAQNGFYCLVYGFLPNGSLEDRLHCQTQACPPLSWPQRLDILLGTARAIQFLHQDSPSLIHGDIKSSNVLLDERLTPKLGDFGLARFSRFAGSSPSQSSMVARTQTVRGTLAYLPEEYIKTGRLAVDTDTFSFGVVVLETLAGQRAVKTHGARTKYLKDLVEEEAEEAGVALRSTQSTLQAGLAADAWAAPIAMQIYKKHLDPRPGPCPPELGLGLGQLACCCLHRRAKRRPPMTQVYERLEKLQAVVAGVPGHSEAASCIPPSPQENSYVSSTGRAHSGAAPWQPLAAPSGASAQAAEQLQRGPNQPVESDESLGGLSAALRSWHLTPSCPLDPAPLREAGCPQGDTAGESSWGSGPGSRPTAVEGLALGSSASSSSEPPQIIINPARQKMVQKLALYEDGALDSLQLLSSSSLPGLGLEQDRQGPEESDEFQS"}, "PKCα(h)": {"target": "PKCα(h) (Homo sapiens, UniProt P17252)"}, "WNK3(h)": {"target": "WNK3(h) (Homo sapiens, UniProt Q9BYP7)", "sequence (Q9BYP7 whole entry)": "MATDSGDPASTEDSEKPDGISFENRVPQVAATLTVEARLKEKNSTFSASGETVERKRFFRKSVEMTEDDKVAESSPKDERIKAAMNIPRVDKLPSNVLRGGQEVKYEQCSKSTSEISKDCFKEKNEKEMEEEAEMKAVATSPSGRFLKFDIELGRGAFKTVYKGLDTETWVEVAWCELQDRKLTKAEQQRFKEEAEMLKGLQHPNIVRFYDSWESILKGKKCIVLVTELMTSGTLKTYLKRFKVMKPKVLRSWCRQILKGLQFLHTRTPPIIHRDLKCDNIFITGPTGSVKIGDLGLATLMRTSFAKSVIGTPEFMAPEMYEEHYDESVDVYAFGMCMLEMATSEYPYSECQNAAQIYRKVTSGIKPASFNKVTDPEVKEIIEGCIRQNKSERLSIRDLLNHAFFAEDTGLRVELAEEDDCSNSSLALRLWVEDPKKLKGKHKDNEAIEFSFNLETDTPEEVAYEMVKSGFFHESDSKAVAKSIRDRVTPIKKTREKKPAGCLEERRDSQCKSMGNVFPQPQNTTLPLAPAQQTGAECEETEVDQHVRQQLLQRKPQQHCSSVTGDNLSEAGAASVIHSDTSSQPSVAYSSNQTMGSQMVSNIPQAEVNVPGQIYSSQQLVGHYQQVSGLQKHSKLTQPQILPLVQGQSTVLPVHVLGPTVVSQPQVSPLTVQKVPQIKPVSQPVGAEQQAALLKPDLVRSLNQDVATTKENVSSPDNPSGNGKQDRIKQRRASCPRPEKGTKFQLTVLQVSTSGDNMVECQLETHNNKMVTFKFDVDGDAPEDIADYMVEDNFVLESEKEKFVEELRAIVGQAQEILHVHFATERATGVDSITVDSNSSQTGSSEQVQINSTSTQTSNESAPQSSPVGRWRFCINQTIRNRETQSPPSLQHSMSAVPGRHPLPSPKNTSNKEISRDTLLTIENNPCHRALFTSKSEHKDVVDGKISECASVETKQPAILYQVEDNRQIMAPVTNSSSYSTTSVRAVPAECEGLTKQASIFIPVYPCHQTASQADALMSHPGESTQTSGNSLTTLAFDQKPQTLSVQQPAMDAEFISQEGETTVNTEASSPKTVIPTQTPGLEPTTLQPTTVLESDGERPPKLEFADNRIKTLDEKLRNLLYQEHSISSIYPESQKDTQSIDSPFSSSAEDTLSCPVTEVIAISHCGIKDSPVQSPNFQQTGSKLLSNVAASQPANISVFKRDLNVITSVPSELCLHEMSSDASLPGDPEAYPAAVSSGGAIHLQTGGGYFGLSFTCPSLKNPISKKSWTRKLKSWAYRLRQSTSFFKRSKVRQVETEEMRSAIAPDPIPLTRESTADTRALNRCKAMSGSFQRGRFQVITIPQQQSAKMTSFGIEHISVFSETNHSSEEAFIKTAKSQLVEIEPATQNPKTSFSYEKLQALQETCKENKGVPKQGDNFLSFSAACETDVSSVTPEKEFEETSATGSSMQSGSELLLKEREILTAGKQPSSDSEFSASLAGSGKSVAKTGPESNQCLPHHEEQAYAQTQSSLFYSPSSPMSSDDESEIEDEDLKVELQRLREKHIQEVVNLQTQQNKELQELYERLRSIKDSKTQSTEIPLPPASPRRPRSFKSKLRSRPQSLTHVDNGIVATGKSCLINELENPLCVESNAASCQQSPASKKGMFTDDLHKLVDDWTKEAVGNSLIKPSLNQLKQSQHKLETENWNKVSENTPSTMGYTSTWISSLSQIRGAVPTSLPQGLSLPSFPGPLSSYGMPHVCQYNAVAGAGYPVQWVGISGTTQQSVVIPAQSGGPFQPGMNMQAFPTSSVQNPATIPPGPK"}, "PDGFRα(D842V)(h)": {"target": "PDGFRα(D842V)(h) (Homo sapiens, UniProt P16234, D842V)"}, "Rsk4(h)": {"target": "Rsk4(h) (Homo sapiens, UniProt Q9UK32)"}, "PI 3-Kinaseβ(h)": {"target": "PI 3-Kinaseβ(h) (Homo sapiens, UniProt P42338)"}}}
{"smiles": "CC(C)CCC(=O)[C@]1(O)C(O)=C(C(=O)C(C)C)C(=O)[C@H]1CCC(C)C", "note": "[TH2, tetrahydroiso-cohumulone]", "values": [{"measurement": "kinase inhibition", "setting": "ZIPK(h); 1 μg/ml", "value": "106% of control"}, {"measurement": "kinase inhibition", "setting": "ZIPK(h); 5 μg/ml", "value": "96% of control"}, {"measurement": "kinase inhibition", "setting": "ZIPK(h); 25 μg/ml", "value": "91% of control"}, {"measurement": "kinase inhibition", "setting": "ZIPK(h); 50 μg/ml", "value": "81% of control"}, {"measurement": "kinase inhibition", "setting": "ZIPK(h); 100 μg/ml", "value": "76% of control"}, {"measurement": "kinase inhibition", "setting": "Rsk3(h); 1 μg/ml", "value": "112% of control"}, {"measurement": "kinase inhibition", "setting": "Rsk3(h); 5 μg/ml", "value": "106% of control"}, {"measurement": "kinase inhibition", "setting": "Rsk3(h); 25 μg/ml", "value": "97% of control"}, {"measurement": "kinase inhibition", "setting": "Rsk3(h); 50 μg/ml", "value": "88% of control"}, {"measurement": "kinase inhibition", "setting": "Rsk3(h); 100 μg/ml", "value": "85% of control"}, {"measurement": "kinase inhibition", "setting": "ZAP-70(h); 1 μg/ml", "value": "125% of control"}, {"measurement": "kinase inhibition", "setting": "ZAP-70(h); 5 μg/ml", "value": "110% of control"}, {"measurement": "kinase inhibition", "setting": "ZAP-70(h); 25 μg/ml", "value": "124% of control"}, {"measurement": "kinase inhibition", "setting": "ZAP-70(h); 50 μg/ml", "value": "124% of control"}, {"measurement": "kinase inhibition", "setting": "ZAP-70(h); 100 μg/ml", "value": "107% of control"}, {"measurement": "kinase inhibition", "setting": "Rsk1(r); 1 μg/ml", "value": "101% of control"}, {"measurement": "kinase inhibition", "setting": "Rsk1(r); 5 μg/ml", "value": "102% of control"}, {"measurement": "kinase inhibition", "setting": "Rsk1(r); 25 μg/ml", "value": "93% of control"}, {"measurement": "kinase inhibition", "setting": "Rsk1(r); 50 μg/ml", "value": "63% of control"}, {"measurement": "kinase inhibition", "setting": "Rsk1(r); 100 μg/ml", "value": "36% of control"}, {"measurement": "kinase inhibition", "setting": "ALK4(h); 1 μg/ml", "value": "109% of control"}, {"measurement": "kinase inhibition", "setting": "ALK4(h); 5 μg/ml", "value": "104% of control"}, {"measurement": "kinase inhibition", "setting": "ALK4(h); 25 μg/ml", "value": "97% of control"}, {"measurement": "kinase inhibition", "setting": "ALK4(h); 50 μg/ml", "value": "83% of control"}, {"measurement": "kinase inhibition", "setting": "ALK4(h); 100 μg/ml", "value": "63% of control"}, {"measurement": "kinase inhibition", "setting": "EGFR(T790M, L858R)(h); 1 μg/ml", "value": "104% of control"}, {"measurement": "kinase inhibition", "setting": "EGFR(T790M, L858R)(h); 5 μg/ml", "value": "109% of control"}, {"measurement": "kinase inhibition", "setting": "EGFR(T790M, L858R)(h); 25 μg/ml", "value": "95% of control"}, {"measurement": "kinase inhibition", "setting": "EGFR(T790M, L858R)(h); 50 μg/ml", "value": "94% of control"}, {"measurement": "kinase inhibition", "setting": "EGFR(T790M, L858R)(h); 100 μg/ml", "value": "82% of control"}, {"measurement": "kinase inhibition", "setting": "IR(h); 1 μg/ml", "value": "96% of control"}, {"measurement": "kinase inhibition", "setting": "IR(h); 5 μg/ml", "value": "100% of control"}, {"measurement": "kinase inhibition", "setting": "IR(h); 25 μg/ml", "value": "80% of control"}, {"measurement": "kinase inhibition", "setting": "IR(h); 50 μg/ml", "value": "75% of control"}, {"measurement": "kinase inhibition", "setting": "IR(h); 100 μg/ml", "value": "79% of control"}, {"measurement": "kinase inhibition", "setting": "IRAK1(h); 1 μg/ml", "value": "99% of control"}, {"measurement": "kinase inhibition", "setting": "IRAK1(h); 5 μg/ml", "value": "112% of control"}, {"measurement": "kinase inhibition", "setting": "IRAK1(h); 25 μg/ml", "value": "37% of control"}, {"measurement": "kinase inhibition", "setting": "IRAK1(h); 50 μg/ml", "value": "39% of control"}, {"measurement": "kinase inhibition", "setting": "IRAK1(h); 100 μg/ml", "value": "39% of control"}, {"measurement": "kinase inhibition", "setting": "PKCα(h); 1 μg/ml", "value": "103% of control"}, {"measurement": "kinase inhibition", "setting": "PKCα(h); 5 μg/ml", "value": "99% of control"}, {"measurement": "kinase inhibition", "setting": "PKCα(h); 25 μg/ml", "value": "98% of control"}, {"measurement": "kinase inhibition", "setting": "PKCα(h); 50 μg/ml", "value": "98% of control"}, {"measurement": "kinase inhibition", "setting": "PKCα(h); 100 μg/ml", "value": "71% of control"}, {"measurement": "kinase inhibition", "setting": "WNK3(h); 1 μg/ml", "value": "111% of control"}, {"measurement": "kinase inhibition", "setting": "WNK3(h); 5 μg/ml", "value": "113% of control"}, {"measurement": "kinase inhibition", "setting": "WNK3(h); 25 μg/ml", "value": "109% of control"}, {"measurement": "kinase inhibition", "setting": "WNK3(h); 50 μg/ml", "value": "113% of control"}, {"measurement": "kinase inhibition", "setting": "WNK3(h); 100 μg/ml", "value": "111% of control"}, {"measurement": "kinase inhibition", "setting": "PDGFRα(D842V)(h); 1 μg/ml", "value": "113% of control"}, {"measurement": "kinase inhibition", "setting": "PDGFRα(D842V)(h); 5 μg/ml", "value": "124% of control"}, {"measurement": "kinase inhibition", "setting": "PDGFRα(D842V)(h); 25 μg/ml", "value": "128% of control"}, {"measurement": "kinase inhibition", "setting": "PDGFRα(D842V)(h); 50 μg/ml", "value": "129% of control"}, {"measurement": "kinase inhibition", "setting": "PDGFRα(D842V)(h); 100 μg/ml", "value": "127% of control"}, {"measurement": "kinase inhibition", "setting": "Rsk4(h); 1 μg/ml", "value": "79% of control"}, {"measurement": "kinase inhibition", "setting": "Rsk4(h); 5 μg/ml", "value": "71% of control"}, {"measurement": "kinase inhibition", "setting": "Rsk4(h); 25 μg/ml", "value": "47% of control"}, {"measurement": "kinase inhibition", "setting": "Rsk4(h); 50 μg/ml", "value": "31% of control"}, {"measurement": "kinase inhibition", "setting": "Rsk4(h); 100 μg/ml", "value": "17% of control"}, {"measurement": "kinase inhibition", "setting": "PI 3-Kinaseβ(h); 1 μg/ml", "value": "99% of control"}, {"measurement": "kinase inhibition", "setting": "PI 3-Kinaseβ(h); 5 μg/ml", "value": "95% of control"}, {"measurement": "kinase inhibition", "setting": "PI 3-Kinaseβ(h); 25 μg/ml", "value": "75% of control"}, {"measurement": "kinase inhibition", "setting": "PI 3-Kinaseβ(h); 50 μg/ml", "value": "47% of control"}, {"measurement": "kinase inhibition", "setting": "PI 3-Kinaseβ(h); 100 μg/ml", "value": "28% of control"}]}
